According to patent US9487482B2, “3,4,5-trimethoxystyrylarylaminopropenones as potential anticancer agents” (Council of Scientific and Industrial Research, priority 2014, dated 2016):

Legend:
HCT116 cells = assay: In vitro cytotoxicity, MTT assay, HCT116; assay type: cell-based, human; conditions: Homo sapiens, HCT-116, HCT116 (colon carcinoma), 48 h continuous drug exposure
Description: (§1) All cell lines used in this study were purchased from the American Type Culture Collection (ATCC, United States). A549, MCF-7, and HeLa were grown in Dulbecco's modified Eagle's medium (containing 10% FBS in a humidified atmosphere of 5% CO2 at 37° C.). HCT116 cells were cultured in Eagle's minimal essential medium (MEM) containing non-essential amino acids, 1 mM sodium pyruvate, […] bovine insulin, and 10% FBS. Cells were trypsinized when sub-confluent from T25 flasks/60 mm dishes and seeded in 96-well plates. The synthesized test compounds were evaluated for their in vitro antiproliferative in four different human cancer cell lines. A protocol of 48 h continuous drug exposure was used, and a MTT cell proliferation assay was used to estimate cell viability or growth. The cell lines were grown in their respective media containing 10% fetal bovine serum and were seeded into 96-well microtiter plates in 200 μL, aliquots at plating densities depending on the doubling time of individual cell lines. The microtiter plates were incubated at 37° C., 5% CO2, 95% air, and 100% relative humidity for 24 h prior to addition of experimental drugs. Aliquots of 2 μL, of the test compounds were added to the wells already containing 198 μL, of cells, resulting in the required final drug concentrations. For each compound, four concentrations (1, 10, 100, and 1000 μM) were evaluated, and each was done in triplicate wells. Plates were incubated further for 48 h, and the assay was terminated by the addition of 10 μL, of 5% MTT and incubated for 60 min at 37° C. Later, the plates were air-dried. Bound stain was subsequently eluted with 100 μL, of DMSO, and the absorbance was read on an multimode plate reader (Tecan M200) at a wavelength of 560 nm. Percent growth was calculated on a plate by plate basis for test wells relative to control wells. The above determinations were repeated thrice. The growth inhibitory effects of the compounds were analyzed by generating dose response curves as a plot of the percentage surviving cells versus compound concentration. The sensitivity of the cancer cells to the test compound was expressed in terms of IC50, a value defined as the concentration of compound that produced 50% reduction as compared to the control absorbance. (A. S. Kumar, M. A. Reddy, N. Jain, C. Kishor, T. R. Murthy, D. Ramesh, B. Supriya, A. Addlagatta, S. V. Kalivendi, B. Sreedhar. Eur. J. Med. Chem. 60 (2013) 305-24).

tubulin = conditions: by binding at colchicine binding site; Simoni et al., J. Med. Chem. 2008; cited from earlier work
HeLa cells = assay: In vitro cytotoxicity, MTT assay, HeLa; assay type: cell-based, human; conditions: Homo sapiens, HeLa (cervical carcinoma), 48 h continuous drug exposure
Description: as §1

A549 cells = assay: In vitro cytotoxicity, MTT assay, A549; assay type: cell-based, human; conditions: Homo sapiens, A549 (non-small cell lung cancer), 48 h continuous drug exposure
Description: as §1

MCF-7 cells = assay: In vitro cytotoxicity, MTT assay, MCF-7; assay type: cell-based, human; conditions: Homo sapiens, 48 h continuous drug exposure
Description: as §1

[1] = test system: A549, HeLa, MCF-7 and HCT116 cells; assay: In vitro cytotoxicity, MTT assay, summary over all four cancer cell lines; assay type: cell-based; conditions: Homo sapiens, range over the group of compounds and the four cell lines, read-out: IC50 value range towards all the cancer cell lines
Description: as §1

[2] = MCF7, 48 h, MCF-7 (breast cancer)

Compound | IC50 (HCT116 cells) [µM] | inhibited tubulin polymerization, compared with CA-4 (tubulin) | IC50 (HeLa cells) [µM] | IC50 (A549 cells) [µM] | IC50 (MCF-7 cells; [2]) [µM] | IC50 [1] [nM] | IC50 (MCF-7 cells; MCF7, MCF-7 (breast cancer)) [µM]
COc1cc(/C=C\c2ccc(OC)c(N)c2)cc(OC)c1 [S4 (Ca-4 amine), (Z)-5-(3,5-dimethoxystyryl)-2-methoxyaniline, reference compound] | 1.62 | five times stronger than CA-4 | 0.58 | 1.78 | 4.07 | – | –
COc1ccc(/C=C\c2cc(OC)c(OC)c(OC)c2)cc1N/C=C\C(=O)c1ccc(OC)c([N+](=O)[O-])c1 [Compound 10t, (Z)-1-(4-methoxy-3-nitrophenyl)-3-((2-methoxy-5-((Z)-3,4,5-trimethoxystyryl)phenyl)amino)prop-2-en-1-one] | 1.29 | – | 0.21 | 0.77 | 2 | 110 to 4680 | –
COc1ccc(C(=O)/C=C\Nc2cc(/C=C\c3cc(OC)c(OC)c(OC)c3)ccc2OC)cc1N [Compound 10u, (Z)-1-(3-amino-4-methoxyphenyl)-3-((2-methoxy-5-((Z)-3,4,5-trimethoxystyryl)phenyl)amino)prop-2-en-1-one] | 0.77 | – | 0.52 | 2.4 | – | 110 to 4680 | 0.25
COc1ccc(C(=O)/C=C\Nc2c(/C=C\c3cc(OC)c(OC)c(OC)c3)ccc(OC)c2O)cc1[N+](=O)[O-] [Compound 16t, (Z)-3-((2-hydroxy-3-methoxy-6-((Z)-3,4,5-trimethoxystyryl)phenyl)amino)-1-(4-methoxy-3-nitrophenyl)prop-2-en-1-one] | 3.98 | – | 1.66 | 7.33 | 0.6 | 180 to 7330 | –
